Common to all, as to format: biochemical
Assay [1] has as its target hGSK-3β (Homo sapiens, UniProt P49841). Kind of assay: GSK-3β Kinase-Glo enzyme inhibition assay, with enzyme kinetics. For orientation: Kinase-Glo measures the ATP left after a reaction by luminescence.
Assay [2] deals with horse serum BChE (Equus caballus, UniProt P81908). Nature of the assay: Cholinesterase enzyme inhibition assay.
For assay [3], the target named is electric eel AChE (Electrophorus electricus, UniProt O42275). Kind of assay: Cholinesterase enzyme inhibition assay.
Sequence of electric eel AChE (O42275 24-633): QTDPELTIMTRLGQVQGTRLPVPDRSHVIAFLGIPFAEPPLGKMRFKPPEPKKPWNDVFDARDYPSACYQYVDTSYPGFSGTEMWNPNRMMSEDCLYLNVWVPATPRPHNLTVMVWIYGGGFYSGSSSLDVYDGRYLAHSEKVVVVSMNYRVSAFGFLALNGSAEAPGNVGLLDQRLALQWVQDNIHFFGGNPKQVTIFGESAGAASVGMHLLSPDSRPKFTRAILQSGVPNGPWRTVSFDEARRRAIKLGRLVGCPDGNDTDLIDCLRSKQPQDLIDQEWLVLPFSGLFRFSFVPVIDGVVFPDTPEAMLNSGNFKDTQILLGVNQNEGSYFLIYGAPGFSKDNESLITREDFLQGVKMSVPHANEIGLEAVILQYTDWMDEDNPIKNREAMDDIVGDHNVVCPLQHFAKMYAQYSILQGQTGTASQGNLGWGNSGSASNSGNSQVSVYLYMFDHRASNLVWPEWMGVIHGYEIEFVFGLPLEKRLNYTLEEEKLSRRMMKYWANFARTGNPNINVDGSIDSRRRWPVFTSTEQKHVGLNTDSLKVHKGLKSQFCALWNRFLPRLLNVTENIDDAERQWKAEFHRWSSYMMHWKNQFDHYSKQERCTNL
In assay [4] the target is human recombinant β-secretase (BACE1) (Homo sapiens, UniProt P56817). Nature of the assay: BACE1 FRET enzyme inhibition assay, with enzyme kinetics. The conditions noted are these: IC50 BACE1, mean ± SD, triplicate.
Sequence of human recombinant β-secretase (BACE1) (P56817 46-501): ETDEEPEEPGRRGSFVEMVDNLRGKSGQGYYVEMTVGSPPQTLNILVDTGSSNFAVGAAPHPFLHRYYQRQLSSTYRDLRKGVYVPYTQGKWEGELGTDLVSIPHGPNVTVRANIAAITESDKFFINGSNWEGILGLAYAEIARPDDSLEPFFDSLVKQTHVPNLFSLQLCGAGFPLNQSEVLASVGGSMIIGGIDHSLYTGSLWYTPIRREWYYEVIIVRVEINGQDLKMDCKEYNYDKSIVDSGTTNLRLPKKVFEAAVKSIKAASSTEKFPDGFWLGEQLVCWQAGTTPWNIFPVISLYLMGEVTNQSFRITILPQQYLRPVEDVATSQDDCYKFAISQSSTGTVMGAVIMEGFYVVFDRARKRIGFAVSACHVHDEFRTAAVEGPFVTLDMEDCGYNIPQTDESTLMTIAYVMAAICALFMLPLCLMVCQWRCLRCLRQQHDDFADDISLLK

Sequence of hGSK-3β (P49841 whole entry): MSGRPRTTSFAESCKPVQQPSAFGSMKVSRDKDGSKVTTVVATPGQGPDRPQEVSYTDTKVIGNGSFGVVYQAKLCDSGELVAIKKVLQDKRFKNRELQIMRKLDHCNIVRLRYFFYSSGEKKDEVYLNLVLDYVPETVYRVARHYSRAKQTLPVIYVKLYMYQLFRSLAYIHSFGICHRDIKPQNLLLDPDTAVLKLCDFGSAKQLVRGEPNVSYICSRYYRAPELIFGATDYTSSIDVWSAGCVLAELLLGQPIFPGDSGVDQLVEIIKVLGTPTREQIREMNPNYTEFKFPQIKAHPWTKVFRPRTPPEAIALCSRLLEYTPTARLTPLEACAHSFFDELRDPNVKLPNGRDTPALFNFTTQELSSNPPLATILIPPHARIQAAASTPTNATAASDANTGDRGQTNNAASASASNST
Sequence of horse serum BChE (P81908 whole entry): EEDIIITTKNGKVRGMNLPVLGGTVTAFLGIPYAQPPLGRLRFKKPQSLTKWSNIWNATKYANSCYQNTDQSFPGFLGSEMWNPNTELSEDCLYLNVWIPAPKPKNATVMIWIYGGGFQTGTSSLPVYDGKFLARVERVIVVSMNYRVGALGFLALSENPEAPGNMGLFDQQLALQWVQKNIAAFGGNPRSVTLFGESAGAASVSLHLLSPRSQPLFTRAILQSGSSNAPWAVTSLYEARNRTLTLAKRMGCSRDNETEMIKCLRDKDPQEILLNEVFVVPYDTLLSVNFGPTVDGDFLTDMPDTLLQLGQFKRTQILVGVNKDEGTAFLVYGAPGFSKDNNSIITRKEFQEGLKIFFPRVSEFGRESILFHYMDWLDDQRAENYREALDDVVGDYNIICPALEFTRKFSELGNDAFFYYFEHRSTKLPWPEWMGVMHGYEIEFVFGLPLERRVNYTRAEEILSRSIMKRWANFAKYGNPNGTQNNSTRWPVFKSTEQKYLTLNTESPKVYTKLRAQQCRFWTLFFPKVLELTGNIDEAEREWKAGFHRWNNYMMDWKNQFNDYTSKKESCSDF

Take `CC(C)=CCC/C(C)=C/Cc1c(O)ccc2cc(-c3cc(O)cc(O)c3CC=C(C)C)oc12` [mulberrofuran D (1), mulberrofuran D]: the values for the IC50 in assay [1], in assay [2] and in assay [3] were 8.12 ± 0.66 µM, 6.12 ± 1.41 µM and 23 ± 1.15 µM, respectively.

On to `C[C@@]12C=C(c3c(O)cc(-c4cc5ccc(O)cc5o4)cc3O)C[C@@H](C1)c1ccc(O)cc1O2` [mulberrofuran H (3), mulberrofuran H], for which the 50% inhibitory concentration (IC50) (in general, the point on the concentration scale where inhibition reaches its midpoint) in assay [1] was 4.41 ± 0.3 µM; in assay [4], 1.04 ± 0.78 µM; in assay [2] it was 64.5 ± 3.1 µM; in assay [3] it was over 200 µM.

Values taken from publication PMC6649263 (ACS Omega, 2019).
